Data reported in patent publication US20020137929A1, “1 - (3-heterocyclylphenyl) isothiourea, -isourea, -guanidine and -amidine herbicidal agents” (Intellectual Property Department, BASF Aktiengesellschaft, priority 1998, published 2002).

Key:
CYPIR (Rice Flatsedge) = experiment: Preemergence weed control under flooded paddy conditions; type: in vivo, Cyperus iria; details: rated 3-4 weeks after treatment
In short: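 Seeds or propagules sown in top 0.5 cm of silt loam soil, flooded 1.5 to 3 cm above surface throughout. Compound in 50/50 v/v aqueous/acetone pipetted into flood water at about 0.0313 to 0.500 kg/ha. Visual 0-9 rating versus control after three to four weeks in greenhouse.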

GALAP (Galium) [1] = experiment: Postemergence herbicidal evaluation; type: in vivo, Galium aparine; details: postemergence
In short: (§1)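 ~2-wk seedlings; postemergence spray, 40 psi; vehicle 1:1 acetone:water + 0.5% Tween 20; rate ≈0.0156–0.500 kg/ha; greenhouse hold; scored 4–5 wk after treatment, 0–9 scale vs control; repeat tests averaged.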

ORYSAT (Rice, Tebonnet) = experiment: Postemergence herbicidal evaluation; type: in vivo, Oryza sativa, (L.) Tebonnet; details: postemergence
In short: as §1

GALAP (Galium) [2] = experiment: Preemergence herbicidal evaluation; type: in vivo, Galium aparine; details: rated 4-5 weeks after treatment
In short: (§2)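 Scores (0–9) reflect visual comparison with control plants for stand, vigor, malformation, size and chlorosis. Compound was applied to the soil after sowing, before emergence, as an aqueous acetone spray (about 0.0156–0.500 kg/ha), and cups were kept in a greenhouse for 4–5 weeks.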

AMBEL (Ragweed, Common) [3] = experiment: Preemergence herbicidal evaluation; type: in vivo, Ambrosia artemisifolia; details: rated 4-5 weeks after treatment
In short: as §2

ABUTH (Velvetleaf) = experiment: Preemergence herbicidal evaluation; type: in vivo, Abutilon theophrasti; details: rated 4-5 weeks after treatment
In short: as §2

[4] = test system: IPOHE (Morningglory, Ivyleaf); experiment: Preemergence herbicidal evaluation; type: in vivo, Ipomoea hederacea; details: rated 4-5 weeks after treatment
In short: as §2

SETVI (Foxtail, Green) [5] = experiment: Preemergence herbicidal evaluation; type: in vivo, Setaria viridis; details: rated 4-5 weeks after treatment
In short: as §2

[6] = test system: GLXMAW (Soybean, Williams); experiment: Postemergence herbicidal evaluation; type: in vivo, Glycine max, (L.) Merr. cv Williams; details: postemergence
In short: as §1

ECHCG (Barnyardgrass) = experiment: Preemergence herbicidal evaluation; type: in vivo, Echinochloa crus-galli; details: rated 4-5 weeks after treatment
In short: as §2

[7] = test system: CHEAL (Lambsquarters, Common); experiment: Postemergence herbicidal evaluation; type: in vivo, Chenopodium album; details: postemergence
In short: as §1

CASOB (Sicklepod) = experiment: Preemergence herbicidal evaluation; type: in vivo, Cassia obtusifolia; details: rated 4-5 weeks after treatment
In short: as §2

SETVI (Foxtail, Green) [8] = experiment: Postemergence herbicidal evaluation; type: in vivo, Setaria viridis; details: postemergence
In short: as §1

ZEAMX (Corn, Field) = experiment: Preemergence herbicidal evaluation; type: in vivo, Zea mays; details: rated 4-5 weeks after treatment
In short: as §2

AMBEL (Ragweed, Common) [9] = experiment: Postemergence herbicidal evaluation; type: in vivo, Ambrosia artemisifolia; details: postemergence
In short: as §1

[10] = test system: CHEAL (Lambsquarters, Common); experiment: Preemergence herbicidal evaluation; type: in vivo, Chenopodium album; details: rated 4-5 weeks after treatment
In short: as §2

[11] = test system: IPOHE (Morningglory, Ivyleaf); experiment: Postemergence herbicidal evaluation; type: in vivo, Ipomoea hederacea; details: postemergence
In short: as §1

CCOC(=O)CN1C(=O)C(Cc2ccccc2OC(C)C(=O)O)S/C1=N/c1cc(-n2c(=O)cc(C(F)(F)F)n(C)c2=O)c(F)cc1Cl (stereo not shown) [Compound 114, 5-[o-(1-Carboxyethoxy)benzyl]-2-{{2-chloro-5-[3,6-dihydro-3-methyl-2,6-dioxo-4-(trifluoromethyl)-1(2H)-pyrimidinyl]-4-fluorophenyl}imino}-4-oxo-3-thiazolidineacetic acid, 3-ethyl ester]
CYPIR herbicidal effect rating (CYPIR (Rice Flatsedge); 0.0313 kg/ha): 4.5
CYPIR herbicidal effect rating (CYPIR (Rice Flatsedge); 0.0625 kg/ha): 6.5
CYPIR herbicidal effect rating (CYPIR (Rice Flatsedge); 0.1250 kg/ha): 8.5
CYPIR herbicidal effect rating (CYPIR (Rice Flatsedge); 0.2500 kg/ha): 9.0
herbicidal rating GALAP (GALAP (Galium) [1]; rate 0.0158 kg/ha): 1.0
herbicidal rating GALAP (GALAP (Galium) [1]; rate 0.0315 kg/ha): 1.0
herbicidal rating GALAP (GALAP (Galium) [1]; rate 0.0630 kg/ha): 3.0
herbicidal rating ORYSAT (ORYSAT (Rice, Tebonnet); rate 0.0158 kg/ha): 1.5
herbicidal rating ORYSAT (ORYSAT (Rice, Tebonnet); rate 0.0315 kg/ha): 2.0
herbicidal rating ORYSAT (ORYSAT (Rice, Tebonnet); rate 0.0630 kg/ha): 3.0
Preemergence herbicidal rating GALAP (GALAP (Galium) [2]; rate 0.0156 kg/ha): 0.0
Preemergence herbicidal rating GALAP (GALAP (Galium) [2]; rate 0.0313 kg/ha): 0.0
Preemergence herbicidal rating GALAP (GALAP (Galium) [2]; rate 0.0625 kg/ha): 3.0
Preemergence herbicidal rating GALAP (GALAP (Galium) [2]; rate 0.1250 kg/ha): 7.0
Preemergence herbicidal rating GALAP (GALAP (Galium) [2]; rate 0.2500 kg/ha): 9.0
Preemergence herbicidal rating AMBEL (AMBEL (Ragweed, Common) [3]; rate 0.0156 kg/ha): 0.0
Preemergence herbicidal rating AMBEL (AMBEL (Ragweed, Common) [3]; rate 0.0313 kg/ha): 0.0
Preemergence herbicidal rating AMBEL (AMBEL (Ragweed, Common) [3]; rate 0.0625 kg/ha): 0.0
Preemergence herbicidal rating AMBEL (AMBEL (Ragweed, Common) [3]; rate 0.1250 kg/ha): 5.0
Preemergence herbicidal rating AMBEL (AMBEL (Ragweed, Common) [3]; rate 0.2500 kg/ha): 7.0
Preemergence herbicidal rating ABUTH (ABUTH (Velvetleaf); rate 0.0156 kg/ha): 0.0
Preemergence herbicidal rating ABUTH (ABUTH (Velvetleaf); rate 0.0313 kg/ha): 1.0
Preemergence herbicidal rating ABUTH (ABUTH (Velvetleaf); rate 0.0625 kg/ha): 6.0
Preemergence herbicidal rating ABUTH (ABUTH (Velvetleaf); rate 0.1250 kg/ha): 9.0
Preemergence herbicidal rating ABUTH (ABUTH (Velvetleaf); rate 0.2500 kg/ha): 9.0
Preemergence herbicidal rating IPOHE ([4]; rate 0.0156 kg/ha): 0.0
Preemergence herbicidal rating IPOHE ([4]; rate 0.0313 kg/ha): 0.0
Preemergence herbicidal rating IPOHE ([4]; rate 0.0625 kg/ha): 0.0
Preemergence herbicidal rating IPOHE ([4]; rate 0.1250 kg/ha): 9.0
Preemergence herbicidal rating IPOHE ([4]; rate 0.2500 kg/ha): 7.0
Preemergence herbicidal rating SETVI (SETVI (Foxtail, Green) [5]; rate 0.0156 kg/ha): 0.0
Preemergence herbicidal rating SETVI (SETVI (Foxtail, Green) [5]; rate 0.0313 kg/ha): 0.0
Preemergence herbicidal rating SETVI (SETVI (Foxtail, Green) [5]; rate 0.0625 kg/ha): 2.0
Preemergence herbicidal rating SETVI (SETVI (Foxtail, Green) [5]; rate 0.1250 kg/ha): 7.0
Preemergence herbicidal rating SETVI (SETVI (Foxtail, Green) [5]; rate 0.2500 kg/ha): 9.0
herbicidal rating GLXMAW ([6]; rate 0.0158 kg/ha): 6.0
herbicidal rating GLXMAW ([6]; rate 0.0315 kg/ha): 5.5
herbicidal rating GLXMAW ([6]; rate 0.0630 kg/ha): 6.5
Preemergence herbicidal rating ECHCG (ECHCG (Barnyardgrass); rate 0.0156 kg/ha): 0.0
Preemergence herbicidal rating ECHCG (ECHCG (Barnyardgrass); rate 0.0313 kg/ha): 0.0
Preemergence herbicidal rating ECHCG (ECHCG (Barnyardgrass); rate 0.0625 kg/ha): 0.0
Preemergence herbicidal rating ECHCG (ECHCG (Barnyardgrass); rate 0.1250 kg/ha): 2.0
Preemergence herbicidal rating ECHCG (ECHCG (Barnyardgrass); rate 0.2500 kg/ha): 4.0
herbicidal rating CHEAL ([7]; rate 0.0158 kg/ha): 7.0
herbicidal rating CHEAL ([7]; rate 0.0315 kg/ha): 6.0
herbicidal rating CHEAL ([7]; rate 0.0630 kg/ha): 9.0
Preemergence herbicidal rating CASOB (CASOB (Sicklepod); rate 0.0156 kg/ha): 0.0
Preemergence herbicidal rating CASOB (CASOB (Sicklepod); rate 0.0313 kg/ha): 0.0
Preemergence herbicidal rating CASOB (CASOB (Sicklepod); rate 0.0625 kg/ha): 1.0
Preemergence herbicidal rating CASOB (CASOB (Sicklepod); rate 0.1250 kg/ha): 3.0
Preemergence herbicidal rating CASOB (CASOB (Sicklepod); rate 0.2500 kg/ha): 9.0
herbicidal rating SETVI (SETVI (Foxtail, Green) [8]; rate 0.0158 kg/ha): 4.0
herbicidal rating SETVI (SETVI (Foxtail, Green) [8]; rate 0.0315 kg/ha): 3.0
herbicidal rating SETVI (SETVI (Foxtail, Green) [8]; rate 0.0630 kg/ha): 9.0
Preemergence herbicidal rating ZEAMX (ZEAMX (Corn, Field); rate 0.0156 kg/ha): 0.0
Preemergence herbicidal rating ZEAMX (ZEAMX (Corn, Field); rate 0.0313 kg/ha): 1.0
Preemergence herbicidal rating ZEAMX (ZEAMX (Corn, Field); rate 0.0625 kg/ha): 1.0
Preemergence herbicidal rating ZEAMX (ZEAMX (Corn, Field); rate 0.1250 kg/ha): 1.0
Preemergence herbicidal rating ZEAMX (ZEAMX (Corn, Field); rate 0.2500 kg/ha): 2.0
herbicidal rating AMBEL (AMBEL (Ragweed, Common) [9]; rate 0.0158 kg/ha): 4.0
herbicidal rating AMBEL (AMBEL (Ragweed, Common) [9]; rate 0.0315 kg/ha): 9.0
herbicidal rating AMBEL (AMBEL (Ragweed, Common) [9]; rate 0.0630 kg/ha): 7.0
Preemergence herbicidal rating CHEAL ([10]; rate 0.0156 kg/ha): 9.0
Preemergence herbicidal rating CHEAL ([10]; rate 0.0313 kg/ha): 9.0
Preemergence herbicidal rating CHEAL ([10]; rate 0.0625 kg/ha): 7.0
Preemergence herbicidal rating CHEAL ([10]; rate 0.1250 kg/ha): 9.0
Preemergence herbicidal rating CHEAL ([10]; rate 0.2500 kg/ha): 9.0
herbicidal rating IPOHE ([11]; rate 0.0158 kg/ha): 9.0
herbicidal rating IPOHE ([11]; rate 0.0315 kg/ha): 9.0
herbicidal rating IPOHE ([11]; rate 0.0630 kg/ha): 9.0
